Among the test systems are IGROV1 ovarian; HOP-62 NSCLC; SF-268 CNS; SK-MEL-5 melanoma; T-47D breast; U251 CNS; OVCAR-3 ovarian; HS 578T breast; NCI-H226 lung; MDA-MB-231 breast.
What all share (assay): NCI-60 cell line screen, 48 h

Where “and” joins values, the source holds several entries; their conditions need not be identical. Identical values can stand only once.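 In this assay, cells in 96-well plates receive the compound at five concentrations for 48 hours. Endpoints are linearly interpolated between the surrounding concentrations. GI50 = concentration required for 50% inhibition of growth. TGI denotes the concentration required for complete inhibition of growth.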

Here are results for 9 molecules from PubChem BioAssay (NCI).

Regarding `Cc1ccc2c(c1)[n+]([O-])c(N)n[n+]2[O-]`, the TGI with IGROV1 ovarian, with HOP-62 NSCLC, in the assay with SF-268 CNS, in the assay on SK-MEL-5 melanoma, in the assay with T-47D breast and in the assay on U251 CNS was more than 100 µM in each case. In addition, the TGI in the assay with OVCAR-3 ovarian, with HS 578T breast, with NCI-H226 lung and in the assay with MDA-MB-231 breast was more than 100 µM throughout.

With `COc1ccc(-c2cc(=O)c3ccc(O)cc3o2)cc1OC`, the TGI in the assay on IGROV1 ovarian is more than 100 µM; in the assay with HOP-62 NSCLC it was more than 100 µM; with SF-268 CNS, more than 100 µM; with SK-MEL-5 melanoma, 41.8 µM; with T-47D breast, more than 100 µM; with U251 CNS it was more than 100 µM. For the same molecule, the TGI in the assay with OVCAR-3 ovarian, with HS 578T breast, with NCI-H226 lung and in the assay on MDA-MB-231 breast was more than 100 µM each time.

Turning to `COc1cc2c(c(O)c1Br)C(=O)c1c(O)cc(C[C@H](C)O)cc1[C@H]2[C@H]1c2cc(C[C@H](C)O)cc(O)c2C(=O)c2c1cc(OC)c(Br)c2O`, the GI50 in the assay with IGROV1 ovarian is 2.98 µM and 5.45 µM; in the assay on HOP-62 NSCLC it was 6.76 µM and 19.1 µM; with SF-268 CNS it was 12.3 µM and 31.2 µM; in the assay with SK-MEL-5 melanoma it was 7.44 µM and 15 µM; in the assay with T-47D breast it was 2.04 µM and 4.09 µM; in the assay on U251 CNS, 2.97 µM and 5.25 µM. For the same molecule, the GI50 with OVCAR-3 ovarian was 15.3 µM and 31.1 µM; in the assay with HS 578T breast, 2.99 µM and 4.1 µM; with NCI-H226 lung it was 6.33 µM and 10.6 µM; in the assay with MDA-MB-231 breast, 3.76 µM and 14.1 µM. Further, the TGI in the assay on IGROV1 ovarian is 46.7 µM and 28.2 µM; with HOP-62 NSCLC, 63.1 µM and 96 µM; in the assay on SF-268 CNS, 67.5 µM and > 100 µM; in the assay with SK-MEL-5 melanoma, 16 µM and 28.5 µM; with T-47D breast, 13.2 µM and 23.4 µM; in the assay on U251 CNS, 23.1 µM and 39.2 µM. In addition, the TGI in the assay on OVCAR-3 ovarian is 67.5 µM and > 100 µM; in the assay with HS 578T breast it was 67.5 µM and 65.9 µM; in the assay on NCI-H226 lung it was 30.9 µM and 47.6 µM; in the assay with MDA-MB-231 breast, 21.7 µM and 34.8 µM.

Take `Cn1c2ccccc2c2c(-c3ccccc3)[n+]3ccncc3nc21`: the GI50 with IGROV1 ovarian is 70.8 µM; in the assay with HOP-62 NSCLC, more than 100 µM; in the assay with SF-268 CNS it was 51.3 µM; in the assay on SK-MEL-5 melanoma, 37.2 µM; in the assay on T-47D breast it was 55.3 µM; in the assay on U251 CNS, 47.4 µM. Also, the GI50 is more than 100 µM in the assay with OVCAR-3 ovarian, 87.5 µM with HS 578T breast, more than 100 µM in the assay on NCI-H226 lung and more than 100 µM in the assay with MDA-MB-231 breast. Besides, the TGI in the assay with IGROV1 ovarian, with HOP-62 NSCLC, with SF-268 CNS, with SK-MEL-5 melanoma, in the assay on T-47D breast and in the assay on U251 CNS was more than 100 µM throughout. In addition, the TGI in the assay on OVCAR-3 ovarian, in the assay on HS 578T breast, in the assay on NCI-H226 lung and in the assay on MDA-MB-231 breast was more than 100 µM each time.

Consider `COc1cc([N+](=O)[O-])cc2c3c(n(C)c12)[C@@]1(C)CCC2c4ccc(OCc5ccccc5)cc4CCC2C1C3` (stereo not given in full), for which the GI50 in the assay on IGROV1 ovarian was more than 100 µM; in the assay on HOP-62 NSCLC it was 43.7 µM; in the assay on SF-268 CNS, more than 100 µM; with SK-MEL-5 melanoma it was 78.9 µM; in the assay on T-47D breast it was 43.1 µM; with U251 CNS it was 37.5 µM. Further, the GI50 was more than 100 µM with OVCAR-3 ovarian, more than 100 µM in the assay on HS 578T breast, 80.4 µM in the assay with NCI-H226 lung and 62.6 µM in the assay on MDA-MB-231 breast. Further, the TGI with IGROV1 ovarian, in the assay on HOP-62 NSCLC, in the assay on SF-268 CNS, in the assay on SK-MEL-5 melanoma, in the assay with T-47D breast and in the assay on U251 CNS was more than 100 µM in each case. For the same molecule, the TGI in the assay with OVCAR-3 ovarian, with HS 578T breast, in the assay on NCI-H226 lung and with MDA-MB-231 breast was more than 100 µM each time.

For `CC(=O)OC[C@]1(C)C=C2C(=O)[C@](C)(O)C3(CC3)C(C)=C2[C@H]1O`, the GI50 is 0.0457 µM in the assay with IGROV1 ovarian; 0.239 µM in the assay on HOP-62 NSCLC; 0.0384 µM in the assay on SF-268 CNS; 0.137 µM in the assay on SK-MEL-5 melanoma; 0.207 µM with T-47D breast; 0.068 µM with U251 CNS. The GI50 with OVCAR-3 ovarian is 0.0424 µM; with HS 578T breast, 0.296 µM; in the assay on NCI-H226 lung it was 0.217 µM; in the assay with MDA-MB-231 breast, 0.152 µM. The TGI in the assay on IGROV1 ovarian turned out to be 0.364 µM; with HOP-62 NSCLC, 1.23 µM; in the assay on SF-268 CNS, 0.499 µM; in the assay on SK-MEL-5 melanoma it was 0.3 µM; with T-47D breast it was 3.65 µM; in the assay with U251 CNS, 6.16 µM. Also, the TGI in the assay with OVCAR-3 ovarian was 0.417 µM; in the assay on HS 578T breast, 1.09 µM; in the assay on NCI-H226 lung, 0.634 µM; in the assay with MDA-MB-231 breast, 0.806 µM.

In the case of `CC1=CC(=Nc2ccc(N(CCCl)CCCl)cc2)C=C(C)C1=O`, the GI50 with HOP-62 NSCLC is 1.1 µM; with SF-268 CNS, 0.409 µM; in the assay on SK-MEL-5 melanoma, 1.72 µM; with T-47D breast it was 0.64 µM; in the assay on U251 CNS, 1.02 µM; with OVCAR-3 ovarian it was 1.05 µM. For the same molecule, the figures for the GI50 with HS 578T breast, with NCI-H226 lung and in the assay with MDA-MB-231 breast were 2.08 µM, 1.2 µM and 2.85 µM, respectively. In addition, the TGI was 7.37 µM in the assay with HOP-62 NSCLC; 2.85 µM in the assay on SF-268 CNS; 5.17 µM with SK-MEL-5 melanoma; 3.22 µM in the assay with T-47D breast; 7.33 µM in the assay on U251 CNS; 3.13 µM in the assay with OVCAR-3 ovarian. For the same molecule, the TGI in the assay with HS 578T breast stood at 7.73 µM; in the assay with NCI-H226 lung, 4.83 µM; in the assay on MDA-MB-231 breast, 9.32 µM.

In the case of `COc1ccc(NC2=CC(=O)C(=O)c3ccccc32)nn1`, the TGI with IGROV1 ovarian came out at 11.1 µM; in the assay on SF-268 CNS, 6.95 µM; in the assay on SK-MEL-5 melanoma, 2 µM; in the assay with T-47D breast it was 11.9 µM; in the assay on U251 CNS, 12.4 µM; in the assay with OVCAR-3 ovarian, 5.94 µM. In addition, the TGI in the assay with HS 578T breast is more than 100 µM; in the assay with NCI-H226 lung, 5.5 µM; with MDA-MB-231 breast, 34.8 µM.

As to `C=CCCCCCCCCC(=O)[O][Sn]([CH2]CCC)([CH2]CCC)[CH2]CCC`, the GI50 in the assay on IGROV1 ovarian is 0.148 µM; with HOP-62 NSCLC, 0.172 µM; in the assay with SF-268 CNS, 0.149 µM; with SK-MEL-5 melanoma it was 0.148 µM; in the assay on U251 CNS, 0.165 µM; in the assay on OVCAR-3 ovarian it was 0.147 µM. Further, the GI50 with HS 578T breast was 0.166 µM; with NCI-H226 lung it was 0.17 µM; in the assay with MDA-MB-231 breast, 0.14 µM. Besides, the TGI in the assay on IGROV1 ovarian was 0.335 µM; in the assay with HOP-62 NSCLC, 0.346 µM; in the assay on SF-268 CNS, 0.309 µM; with SK-MEL-5 melanoma it was 0.282 µM; with U251 CNS it was 0.318 µM; with OVCAR-3 ovarian it was 0.285 µM. Further, the TGI in the assay with HS 578T breast came out at 0.493 µM; in the assay on NCI-H226 lung it was 0.325 µM; in the assay on MDA-MB-231 breast it was 0.304 µM.
